# Results as given in patent publication US20070015813A1, “Treatment of protein folding disorders” (QUEEN'S UNIVERSITY AT KINGSTON, priority 2005, published 2007).
# Assays:
# [1] = target: T1, Aβ1-42 (Homo sapiens, UniProt P05067); assay: Kinetic Thioflavin T (ThT) aggregation assay of Aβ1-42; type: biochemical; conditions: 20 μM Aβ1-42, kinetic ThT assay
# T1 construct: Aβ^1-42 (AnaSpec, lot 45685); purchased AnaSpec
# Procedure: Aβ^1-42 (1.0 mg) was either pretreated with HFIP in the same manner as Aβ^1-40 or this step was omitted. After removing HFIP, when appropriate, Aβ^1-42 was dissolved in 1% NH3 (aq.) (200 μL) and sonicated for 1 min. The solution was diluted with Tris-HCl (5.7 mL, 20 mM, pH 7.4), the pH adjusted to 7.4 with concentrated HCl (aq.) and the solution filtered using a syringe filter (0.2 μm). Prior to use in the ThT aggregation assay, the solution was diluted with an equal volume of 8 μM Thioflavin T (ThT) in Tris-HCl (20 mM, pH 7.4, 300 mM NaCl).
# (§1) Aliquots (200 μL) of Aβ^1-40, Aβ^1-42, tau441 or α-synuclein with ThT or ThS were added to wells of a black polystyrene 96-well plate, followed by 2 μL of a compound in DMSO (various concentrations), or DMSO alone (controls). For α-synuclein, sodium dodecyl sulfate solution (2.0 μL, 30 mM) was also added to each well to induce aggregation. Incubations were performed in triplicate and were taken to contain 20 μM Aβ^1-40 or Aβ^1-42, 6 μM tau441 or 4 μM α-synuclein. Plates were covered with clear polystyrene lids and incubated at 37° C. in a GENios microplate reader obtained from Tecan Group Limited, Mannedorf, Zurich. For Aβ^1-40, tau441 and α-synuclein, fluorescence readings (λex=450 nm, λem=480 nm) were taken every 15 min., after first shaking at high intensity for 15 sec. and allowing to settle for 10 sec. before each reading. For Aβ^1-42, readings were taken every 5 min.
# (§2) The absorbance of each compound was measured under the conditions used during testing, though on ten times the scale (2 mL), to ensure no significant quenching interfered with the assay. This step was also used to identify whether compounds were completely soluble under testing conditions.
# FIG. 7 depicts inhibition of Aβ^1-42 aggregation by various synthesized bi-aromatic compounds and positive controls morin (Ono K, Yoshiike Y, Takashima A, Hasegawa K, Naiki H, Yamada M. 2003. J Neurochem 87:172-81) and RS-0406 (Walsh D M, Townsend M, Podlisny M B, Shankar G M, Fadeeva J V, Agnaf O E, Hartley D M, Selkoe D J. 2005. J Neurosci 25:2455-62) in the kinetic ThT assay. Same conditions as for Aβ^1-40, FIG. 1. Compound concentrations were 100 μM in (A), 20 μM in (B), except for RS-0406, which was tested at 100 μM, and 20 μM in (C).
# [2] = target: T2, Aβ1-40 (Homo sapiens, UniProt P05067); assay: Kinetic Thioflavin T (ThT) aggregation assay of Aβ1-40; type: biochemical; conditions: for inhibition of Aβ1-40 aggregation, as measured by Thioflavin T (ThT) fluorescence: 20 μM Aβ1-40, 4 μM ThT, pH 7.4, 37° C., kinetic ThT assay
# T2 construct: Aβ^1-40 (AnaSpec, San Jose, Calif., lots 14212, 34862 and 34889); purchased AnaSpec, San Jose, Calif
# T2 sequence (P05067 672-711 limits assumed): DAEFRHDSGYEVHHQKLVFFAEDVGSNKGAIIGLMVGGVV
# Procedure: Aβ^1-40 (1.0 mg) was pre-treated in a 1.5 mL microfuge tube with 1,1,1,3,3,3-hexafluoroisopropanol (HFIP, 1 mL) and sonicated for 20 min. to disassemble any pre-formed Aβ aggregates. The HFIP was removed with a stream of argon and the Aβ dissolved in Tris base (5.8 mL, 20 mM, pH 10.5). The pH was adjusted to 7.4 with concentrated HCl and the solution filtered using a syringe filter (0.2 μm). This solution was used for circular dichroism studies or diluted with an equal volume of 8 μM Thioflavin T (ThT) in Tris-HCl (20 mM, pH 7.4, 300 mM NaCl) for the ThT aggregation assay.
# as §1, §2
# FIG. 1 depicts the inhibition of Aβ^1-40 aggregation, as measured by Thioflavin T (ThT) fluorescence, by directly-linked 3,3′-bis-indolyl compounds 0c-i (A), other bis-indoles (B), aza-indole-containing compounds (C), indole-phenols (D), indole-5-carboxylic acid-containing bi-aromatics (E), and naphthol-containing bi-aromatics (F). Aggregation conditions: 20 μM Aβ^1-40 incubated in covered black 96-well polystyrene microplates with 4 μM ThT, pH 7.4, Tris-HCl (20 mM), 150 mM NaCl, 1% DMSO. Compound concentrations are 200 μM (A,B, except where otherwise noted), 100 μM (E), 20 μM (F), or as indicated (C,D). Plates heated at 37° C. in Tecan Genios microplate reader. All incubations performed in triplicate. Prior to experiment, Aβ^1-40 pretreated with 1,1,1,3,3,3-hexafluoroisopropanol (HFIP). Fluorescence readings: fluorescence measured every 15 min. (λex=450 nm, λem=480 nm) after shaking for 15 sec. and pausing 10 sec. before taking measurement. Values are the mean of three replicates. Error bars, omitted for clarity in (B), represent standard deviation of the mean.
# [3] = Colour on exposure to light and air (stability to oxidation); type: physicochemical; conditions: solid compounds, days or weeks
# Procedure: The highly branched bridging groups of 1h,i,j provide additional molecular diversity to help identify favourable characteristics for compound activity against Aβ.
# [4] = target: T3, tau441 (Homo sapiens, UniProt P10636); assay: Kinetic Thioflavin S (ThS) assay of tau441 aggregation; type: biochemical
# T3 construct: (expression construct); host or cells: E. coli BL21 D3
# T3 sequence (P10636 1-441 isoform P10636-8): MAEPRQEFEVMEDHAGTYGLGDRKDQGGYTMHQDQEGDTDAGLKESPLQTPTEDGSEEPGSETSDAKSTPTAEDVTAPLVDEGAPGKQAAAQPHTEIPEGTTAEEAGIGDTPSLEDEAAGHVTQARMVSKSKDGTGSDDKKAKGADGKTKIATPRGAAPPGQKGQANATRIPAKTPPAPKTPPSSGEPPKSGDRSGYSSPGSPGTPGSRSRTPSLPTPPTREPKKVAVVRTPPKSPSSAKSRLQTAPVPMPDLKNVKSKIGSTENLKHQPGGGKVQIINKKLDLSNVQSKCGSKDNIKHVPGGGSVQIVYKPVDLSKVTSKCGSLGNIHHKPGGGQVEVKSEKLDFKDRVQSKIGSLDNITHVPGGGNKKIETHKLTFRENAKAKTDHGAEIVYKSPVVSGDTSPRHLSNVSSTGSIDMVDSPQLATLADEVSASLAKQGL
# Procedure: The tau441 expression construct [L Buee et al. (2000). Brain Research Reviews 33:95-130] was purchased (Bioclon Inc., San Diego, Calif.) already transformed in BL21 D3 bacterial cells (Novagen/EMD Biosciences) for protein expression. Cells were grown and induced with IPTG according to Novagen's protocol. To lyse cells, Cellytic B reagent (Sigma) was used with lysozyme protease inhibitors (Sigma) and benzonase (Novagen/EMD Biosciences), according to manufacturer's methods. Lysate was cleared by centrifugation for 20 min at 10,000 RPM (SS34 rotor, Sorvall RC2b centrifuge) at 4° C. Protein was purified from the soluble fraction. Once purified, tau441 was stored at −78° C. as frozen aliquots (8.3 mg/mL, 60 μL) in Tris-HCl (50 mM, pH 7.4) until used.
# Frozen aliquots of tau441 (8.3 mg/mL, 60 μL) in Tris-HCl (50 mM, pH 7.4) were allowed to thaw at room temperature (RT) before being diluted with Tris-HCl (2.64 mL, 50 mM, pH 7.4) containing dithiothreitol (DTT, 1 mM) to prevent disulfide bonds and NaN3 (50 μM) to prevent bacterial growth. After allowing to stand at RT for 1 h, Thioflavin S (ThS) was added (2.5 μL, 10.8 mM), followed by the aggregation inducer heparin (20 μL, 1.08 g/mL).
# as §1
# Aggregation conditions: tau441 at a concentration of either 10 μM (A) or 4 μM (B,C,D,E) was incubated in covered black 96-well polystyrene microplates alone or with 100 (A) or 50 μM compound (B,C,D,E), 5 μM ThS, pH 7.4, Tris-HCl (50 mM) containing NaN3 (50 μM), and either 1% MeOH (A) or 1% DMSO (B,C,D,E). Plates were heated at 37° C. in a Tecan GENios microplate reader. All incubations performed in triplicate, except for compound 0c in (A), which had n=1. Fluorescence readings: fluorescence measured every 15 min. (λex=450 nm, λem=480 nm) after shaking for 15 sec. and pausing 10 sec. before taking measurement. Values are the mean of three replicates. Error bars, sometimes not visible due to small size, represent standard deviation of the mean.
# Aggregation conditions: tau441 at a concentration of 4 μM was incubated in covered black 96-well polystyrene microplates alone or with 50 μM (A,B,C) or 1 mM compound (D), 5 μM ThS, pH 7.4, Tris-HCl (50 mM) containing NaN3 (50 μM), and 1% DMSO. Plates were heated at 37° C. in a Tecan GENios microplate reader. All incubations performed in triplicate. Fluorescence readings: fluorescence measured every 15 min. (λex=450 nm, λem=480 nm) after shaking for 15 sec. and pausing 10 sec. before taking measurement. Values are the mean of three replicates. Error bars, sometimes not visible due to small size, represent standard deviation of the mean.
# T1 sequence (P05067 672-713 limits assumed): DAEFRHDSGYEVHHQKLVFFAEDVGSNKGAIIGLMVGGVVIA
SMILES,melting point,"inhibition of Aβ1-42 aggregation, as measured by ThT fluorescence [1]",also measured
"COc1ccc2[nH]cc(-c3c[nH]c4ccc(OC)cc34)c2c1 [0b, 5-methoxy-3-(5-methoxy-indol-3-yl)-indole]",193 to 196 °C,–,–
"O=C(O)c1ccc2c(-c3c[nH]c4ccccc34)c[nH]c2c1 [0k, 3-(Indol-3-yl)-indole-6-carboxylic Acid]",–,inhibiting aggregation,–
"Oc1ccc2[nH]cc(C3CNc4ncccc43)c2c1 (stereo not shown) [0n, 3-(2,3-dihydro-7-azaindol-3-yl)-indol-5-ol]",–,inhibit aggregation,"inhibition of Aβ1-40 aggregation, as measured by Thioflavin T (ThT) fluorescence [2]: inhibit aggregation"
"B.O=C(O)c1ccc2[nH]cc(-c3c[nH]c4ncccc34)c2c1 [0o, 3-(7-azaindol-3-yl)-indole-5-carboxylic acid.BH3]",–,inhibit aggregation,"inhibition of Aβ1-40 aggregation, as measured by Thioflavin T (ThT) fluorescence [2]: inhibit aggregation"
"c1ccc2c(c1)ccn2Cc1c[nH]c2ccccc12 [1b, 3-((indol-1-yl)methyl)-indole]",82 to 84 °C,–,–
"COc1ccc2c(ccn2Cc2c[nH]c3ccc(OC)cc23)c1 [1d, 5-methoxy-3-((5-methoxy-indol-1-yl)methyl)-indole]",48 to 50 °C,–,–
"CC(C)(c1c[nH]c2ccc(O)cc12)c1c[nH]c2ccc(O)cc12 [1h, 2,2-Bis-(5-hydroxyindol-3-yl)propane]",133 to 136 °C,–,colour when exposed to light and air [3]: remained a light colour
"CC1(C)CC(C)(c2c[nH]c3ccc(O)cc23)c2[nH]c3ccc(O)cc3c21 (stereo not shown) [1i, 1,2,3,4-Tetrahydro-3-(5-hydroxyindol-3-yl)-1,1,3-trimethylcyclopenta[b]indol-7-ol]",132 °C (dec.),–,colour when exposed to light and air [3]: remained a light colour
"CC1(C)CC2(CC(C)(C)c3c2[nH]c2ccc(O)cc32)c2[nH]c3ccc(O)cc3c21 [1j, 3,3,3′,3′-Bis(1,2,3,4-tetrahydro-1,1-dimethylcyclopenta[b]indol-7-ol)]",140 °C (dec.),–,colour when exposed to light and air [3]: remained a light colour
"O=C(O)c1ccc2[nH]cc(CCc3c[nH]c4ccc(Br)cc34)c2c1 [2b, 3-(2-(5-bromo-indol-3-yl)ethyl)-indole-5-carboxylic Acid]",205 °C (dec.),–,–
"B.COc1ccc2[nH]cc(-c3c[nH]c4ncccc34)c2c1 [10n, 3-(5-methoxyindol-3-yl)-7-azaindole.BH3]",–,inhibit aggregation,"inhibition of Aβ1-40 aggregation, as measured by Thioflavin T (ThT) fluorescence [2]: inhibit aggregation"
Oc1cccc(Nc2ccc(Nc3cccc(O)c3)nn2)c1 [RS-0406],–,inhibition,–
"Oc1ccc2cc(-c3cc4ccccc4o3)ccc2c1 [compound 64, 6-Benzofuran-2-yl-naphthalen-2-ol]",–,inhibiting aggregation,–
"O=C(O)c1sc2ccccc2c1-c1cc2ccccc2o1 [compound 83, 3-(Benzofuran-2-yl)-benzothiophene-2-carboxylic Acid]",–,–,"effect on tau fibrillization (ThS fluorescence) ([4]; tau441 4 or 10 μM, 50 to 100 μM compound, 5 μM ThS, heparin inducer, pH 7.4, 37° C.): Other than 83 in FIG. 10E, all the bi-aromatics tested significantly modulated"
"O=C(O)c1ccc2[nH]c(Cc3ccc(O)cc3)c(Cc3ccc(O)cc3)c2c1 [compound 102, 2,3-bis(4-hydroxybenzyl)-indole-5-carboxylic Acid]",–,–,"activity against (inhibition of) Aβ1-40 aggregation at 200 μM compound ([2]; 200 μM compound, 20 μM Aβ1-40, kinetic ThT assay (FIG. 1A, 1D)): active"
O=C(O)c1cccnc1 [nicotinic acid],–,–,"effect on tau fibrillization (ThS fluorescence) at 1 mM ([4]; tau441 4 μM, 1 mM compound (FIG. 11D)): no effect"
